Where two headings read alike, the source gives them in different places. Where a SMILES comes first, the peptide text is derived from it. Bridges are numbered along the chain shown (N, C = ends). [ ]: non-standard residue; d: D form. Nle = CCCC[C@H](N)C(=O)O
Key:
[1] = test system: MDA-MB-231 human breast cancer cells; test: In vitro inhibition of MDA-MB-231 cell growth by analogs with amino acid substitutions (Example 7); format: cell-based; details: 100 nM, 8-10 days; for growth inhibition compared with Ang-(1-7) and TCAng05: added twice weekly
Experimental: To determine whether the novel analogs reduced tumor growth, subconfluent monolayers of actively growing MDA-MB-231 human breast cancer cells in 24-well cluster plates were incubated with 100 nM of Ang(1-7) (A7), TCAng05 (TC), or one of analogs NEP1-24 for 8-10 days. Ang-(1-7) was added daily as it is rapidly degraded while the Ang(1-7) analogs were added twice weekly at the time the cells were fed. Saline was used as control (C). Cell numbers were then counted using a Nexelcom Cellometer. Assays were performed in triplicate for 2-4 replicates.

[2] = Stability of peptides incubated in rat plasma at 37° C., HPLC; format: in vitro ADME
Experimental: The stability of the Ang(1-7) peptide analog TCAng04 (SEQ ID NO:5) was assessed in rat plasma. The peptide was incubated with rat plasma at 37° C. for 60 min (left) or 125 hours (right). The concentration of TCAng04 and Ang-(1-7) was determined by HPLC using verified standards. Ang-(1-7) was rapidly degraded following incubation in rat plasma with a half-life of about 30 min, similar to the pharmacokinetics observed in two clinical trials (FIG. 1B) (see Rodgers et al. Cancer Chemother Pharmacol 2006; 57:559-68; and Petty et al. Clinical Cancer Research 2009; 15:7398-404). Conversely, TCAng04 was stable under the same conditions, with a half-life in rat plasma of approximately 50 hours.

[3] = test system: MDA-MB-231 human breast cancer cells; format: cell-based; details: 7 to 10 days; for reduction of cell growth / effect on MDA-MB-231 cell growth: 100 nM; for reduction of cell growth: analogs added on Day 0 (single dose), cell number; for effect on MDA-MB-231 cell growth: added once (Day 0/Day 1)
Experimental: (§1) To determine the effect of the peptide analogs on tumor cell growth, 100 nM Ang-(1-7) or analogs TCAng01-TCAng05 (SEQ ID NOs:2-6) were incubated with subconfluent monolayers of actively growing A549 human lung cancer cells or MDA-MB-231 human breast cancer cells in 24-well cluster plates for 6 to 10 days or 7 to 10 days. Assays were performed in duplicate for 4-14 replicates or 3-14 replicates, respectively. Cell number was counted using a Nexelcom Cellometer. […] Ang-(1-7) does inhibit the growth of human breast cancer cells (by 42.9±5.2%, n=6, over 6-10 days) and human lung cancer cells (by 53.1±7.1%, n=12, over 7-10 days) if it is added daily, as shown in FIG. 2 and FIG. 3.
A linear form of TCAng05 (L-TCAng05; SEQ ID NO:7) was tested to determine the influence of cyclization on the stability of the peptide. Subconfluent monolayers of MDA-MB-231 human breast cancer cells were incubated with 100 nM of Ang-(1-7), L-TCAng05, or TCAng05 for 7 to 10 days and cell number was counted using a Nexelcom Cellometer. Assays were performed in duplicate for 3-14 replicates. Ang-(1-7) was added daily, due to its rapid degradation.
Similar assays were performed to assess whether inhibition of cell growth by TCAng05 was mediated by the Ang-(1-7) receptor mas. Subconfluent monolayers of MDA-MB-231 human breast cancer cells were incubated with 100 nM of Ang-(1-7), added daily, or TCAng05, in the presence or absence of 1 μM Ang-(1-7) receptor antagonist D-Alanine^7-Ang-(1-7) [Dala] for 7 to 10 days and cell number was counted using a Nexelcom Cellometer. Assays were performed in duplicate for 4-14 replicates.

[4] = test system: A549 human lung cancer cells; format: cell-based; details: 100 nM, analogs added on Day 0 (single dose), cell number
Experimental: as §1

[5] = test system: 4T1 breast cancer cells; test: In vivo inhibition of tumor growth by subcutaneous administration, orthotopic 4T1 model in BALB/C mice; design: species or system mouse
Experimental: The ability of TCAng05 to inhibit tumor growth in vivo was measured in an orthotopic model of human breast cancer, using 4T1 breast cancer cells. 4T1 cells (2.5×10^5 in saline) were injected into the 4th mammary fat pad of BALB/C mice. Tumor size was measured every 3 days using a caliper and tumor volume was calculated using the formula for a semi-ellipsoid. The tumors were allowed to grow until they reached a size of 100 mm^3, at which point subcutaneous treatment was started (Day 0). Primed osmotic mini-pumps were implanted into the subcutaneous space on the back of each mouse to deliver either saline, 24 μg/kg/h Ang-(1-7), 6 μg/kg/h TCAng05 (low), 12 μg/kg/h TCAng05 (medium), or 24 μg/kg/h TCAng05 (high). Mice were sacrificed on Day 21 of treatment. Five animals were used per treatment group. […] Treatment with Ang-(1-7) reduced tumor size 50%, to a final size of 495.5±110.8 mm^3. […] At the time of sacrifice, the mice were weighed and the tumors, heart and kidneys were weighed.

[6] = test system: 4T1 breast cancer cells; format: in vivo, mouse; details: for final tumor volume: daily gavage, untreated 671.2±127.2
Experimental: The oral efficacy of TCAng05 to inhibit tumor growth in vivo was also measured using the orthotopic model of human breast cancer described in Example 4. 4T1 breast cancer cells were injected into the mammary fat pad of BALB/C mice (2.5×10^5 cells in saline). Tumor size was measured every 3 days using a caliper and tumor volume was calculated using the formula for a semi-ellipsoid. The tumors were allowed to grow until they reached a size of 100 mm^3, at which point treatment was started (Day 0). Mice received daily gavage of TCAng05 at one of three concentrations: 12 μg/kg/day (Low), 60 μg/kg/day (Medium), or 300 μg/kg/day (High). Mice were sacrificed on Day 21 of treatment. Treatment groups contained 3-4 animals. […] At the time of sacrifice, the tumors were weighed.

[7] = test system: Ki67; test: Ki67 immunohistochemistry of tumors from orally treated mice (cell proliferation); format: in vivo, mouse; details: oral TCAng05, 12, 60, 300 μg/kg/day
Experimental: (§2) To identify the molecular mechanisms for the reduction in tumor weight, tumors from mice that received oral TCAng05 (described in Example 5) were assessed for cell markers associated with cell proliferation, angiogenesis, and fibrosis. Tumors were fixed in 4% formalin, embedded in paraffin, sectioned at 5 microns, and analyzed by immunohistochemistry. Tumor tissue sections were visualized using a Leica DM microscope (Leica Microsystems, Bannockburn, Ill.) with the Simple PCI Version 6.0 computer-assisted imaging software (Hamamatsu Corporation, Sewickley, Pa.) and photographed with the Qlmaging Retiga 1300R Camera (Qlmaging Co. Surey, BC, Canada). The number of immunopositive cells is expressed as a percentage of the total cell number examined (100 cells counted from each tissue site within a tumor section).
Tumor sections were stained with an antibody specific for Ki67 to measure cell proliferation.

[8] = test system: CD34; test: CD34 immunohistochemistry of tumors from orally treated mice (blood vessel density); format: in vivo, mouse; details: oral TCAng05
Experimental: as §2
Tumor sections were stained with an antibody specific for CD34 to label endothelial cells lining blood vessels and measure the density of blood vessels. […] In previous studies with orthotopic models, Ang-(1-7) reduced angiogenesis in mice with human lung tumors or human prostate tumors (Soto-Pantoj a et al., Mol Cancer Ther 2009; 8:1676-83; Krishnan et al., Prostate 2013; 73:60-70). This is in agreement with a reduction in the pro-angiogenic peptide platelet-derived growth factor (PDGF) in patients with solid tumors treated with Ang-(1-7) (Petty et al., BMC Cancer 2012; 12:404).

[9] = test system: collagen; test: Picrosirius red collagen staining of tumors from orally treated mice (fibrosis); format: in vivo, mouse; details: oral TCAng05
Experimental: as §2
Tumor sections were stained with Picrosirius red to stain for collagen.

[10] = rat plasma, 37° C., HPLC, read-out: half-life in rat plasma (converted)

## [Lac(2,9)]Ac-(Nle)cyc[DRVYAHPK](dV)(dP)-amide (Ac-[Nle]DRVYAHPK[dV][dP]-NH2; lactam 2-9; not fully specified; printed as [Lac(2,9)]Ac-(Nle)cyc[DRVYAHPK](dV)(dP)-amide) [NEP4]
[1]
  growth inhibition compared with Ang-(1-7) and TCAng05: reduced cell growth comparably

## [Lac(2,9)]Ac-(Nle)cyc[DRVYLHPK](dV)(dP)-amide (Ac-[Nle]DRVYLHPK[dV][dP]-NH2; lactam 2-9; not fully specified; printed as [Lac(2,9)]Ac-(Nle)cyc[DRVYLHPK](dV)(dP)-amide) [NEP12]
[1]
  growth inhibition compared with Ang-(1-7) and TCAng05: reduced cell growth comparably

## [Lac(2,9)]Ac-(Nle)cyc[DRVYIHP(NMeK)](dV)(dP)-amide [NEP20]
[1]
  growth inhibition compared with Ang-(1-7) and TCAng05: reduced cell growth comparably

## [Lac(2,9)]Ac-(Nle)cyc[DRVYIHP(Dab)](dV)(dP)-amide [NEP24]
[1]
  growth inhibition compared with Ang-(1-7) and TCAng05: reduced cell growth comparably

## CC[C@H](C)[C@@H]1NC(=O)[C@H](Cc2ccc(O)cc2)NC(=O)[C@H](C(C)C)NC(=O)[C@H](CCCNC(=N)N)NC(=O)[C@H](CC(=O)O)NC(=O)C[C@@H](C(=O)N[C@@H](C(=O)N2CCC[C@@H]2C(N)=O)C(C)C)NC(=O)[C@@H]2CCCN2C(=O)[C@H](Cc2c[nH]cn2)NC1=O [TCAng04, cyc[DRVYIHPD](dV)(dP)-amide] (DRVYIHPD[dV][dP]-NH2; lactam N-8)
[2]; [10]
  half-life: ~3000 min
[3]
  reduction of cell growth: 51.5±5.4%
[4]
  reduction of cell growth: 33.7±12.3%

## Ac-(Nle)DRVYIHPK(dV)(dP)-amide (Ac-[Nle]DRVYIHPK[dV][dP]-NH2; SMILES CCCC[C@H](NC(C)=O)C(=O)N[C@@H](CC(=O)O)C(=O)N[C@@H](CCCNC(=N)N)C(=O)N[C@H](C(=O)N[C@@H](Cc1ccc(O)cc1)C(=O)N[C@H](C(=O)N[C@@H](Cc1c[nH]cn1)C(=O)N1CCC[C@H]1C(=O)N[C@@H](CCCCN)C(=O)N[C@@H](C(=O)N1CCC[C@@H]1C(N)=O)C(C)C)[C@@H](C)CC)C(C)C) [L-TCAng05, linear form of TCAng05]
[3]
  effect on MDA-MB-231 cell growth: ineffective

## CC[C@H](C)[C@H](NC(=O)[C@H](Cc1ccc(O)cc1)NC(=O)[C@@H](NC(=O)[C@H](CCCNC(=N)N)NC(=O)[C@@H](N)CC(=O)O)C(C)C)C(=O)N[C@@H](Cc1c[nH]cn1)C(=O)N1CCC[C@H]1C(=O)O [Ang-(1-7), DRVYIHP]
[2]; [10]
  half-life: ~30 min
[2]; read-out: half-life in plasma
  half-life: 30 min
[5]; subcutaneous treatment, at sacrifice
  weight of the mice, size of hearts and kidneys: no change

## [Lac(2,9)]H2N-(Nle)cyc[DRVYIHPK](dV)(dP)-amide (H-[Nle]DRVYIHPK[dV][dP]-NH2; lactam 2-9; not fully specified; printed as [Lac(2,9)]H2N-(Nle)cyc[DRVYIHPK](dV)(dP)-amide) [NEP16]
[1]
  growth inhibition compared with Ang-(1-7) and TCAng05: reduced cell growth comparably

## [Lac(2,9)]Ac-(Nle)cyc[DRVYIHP(K)-amide] (Ac-[Nle]DRVYIHPK-NH2; lactam 2-9; not fully specified; printed as [Lac(2,9)]Ac-(Nle)cyc[DRVYIHP(K)-amide]) [NEP8]
[1]
  growth inhibition compared with Ang-(1-7) and TCAng05: reduced cell growth comparably

## [Lac(2,9)[Ac-(Nle)cyc[DRVYIHPK](dV)(dP)-amide (Ac-[Nle]DRVYIHPK[dV][dP]-NH2; lactam 2-9; not fully specified; printed as [Lac(2,9)[Ac-(Nle)cyc[DRVYIHPK](dV)(dP)-amide) [TCAng05]
[3]; 100 nM peptide plus 1 μM D-Alanine7-Ang-(1-7) [Dala]
  inhibition of growth in the presence of Ang-(1-7) receptor antagonist Dala: blocked
[3]
  effect on MDA-MB-231 cell growth: reduced growth
  reduction of cell growth: 51.5±5.4%
[4]
  reduction of cell growth: 33.7±12.3%
[5]; 24 μg/kg/h, subcutaneous osmotic mini-pump, saline 980.1±35.0
  final tumor size (volume): 259.1±19.2 mm^3
[5]; 6, 12, 24 μg/kg/h subcutaneous
  tumor size across doses: dose-dependent reduction
[5]; highest concentration (24 μg/kg/h), subcutaneous, at sacrifice
  reduction in tumor weight: 48%
[5]; low (6 μg/kg/h) and medium (12 μg/kg/h) doses, subcutaneous
  effect of low and medium doses: not significantly impact
[5]; mouse, in vivo, sc
  weight of the mice, size of hearts and kidneys: no change
[6]; high dose 300 μg/kg/day
  final tumor volume: 378.3±151.2 mm^3
[6]; low dose 12 μg/kg/day, oral
  effect of low dose: not significantly impact
[6]; medium dose 60 μg/kg/day
  final tumor volume: 289.7±64.2 mm^3
[6]; medium or high oral dose, at sacrifice
  tumor weight: reduced
[6]; mouse, in vivo, po
  mouse weight, heart weight or kidney weight: no effect
[7]
  Ki67 immunoreactivity in tumor sections: dose-dependent reduction
[8]
  density of blood vessels (CD34) in tumor sections: significant reduction
[9]
  collagen staining (Picrosirius red) in tumor sections: reduced
[1]; Ang-(1-7) added daily, analogs added twice weekly
  reduction of cell growth: 27.3±9.8%

Source: patent US10829519B2, “Angiotensin (1-7) analogs and methods relating thereto” (WAKE FOREST UNIVERSITY HEALTH SCIENCES, priority 2015, dated 2020)
